Like-named read-outs stand apart in the source and are kept apart here.
How the values were obtained:
[1] = system: Green Peach Aphid (Myzus Persicae); test: Insecticidal test for green peach aphid in foliar spray assay (col. MYZUPE); assay type: in vivo; conditions: Myzus persicae, 72 h, read-out: MYZUPE 200 ppm (Corrected % Control, rating)
Procedure, shortened: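 Cabbage seedlings with 2-3 true leaves, infested with 20-50 wingless adult and nymph aphids one day earlier, sprayed to runoff at 200 ppm (acetone/methanol stock diluted in 0.025% Tween 20), four pots per treatment. After 3 days at ~25 °C, 40% RH, live aphids counted; corrected % control versus solvent-sprayed plants.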

[2] = system: Sweetpotato Whitefly-Crawler (Bemisia Tabaci); test: Insecticidal test for sweetpotato whitefly-crawler in foliar spray assay (col. BEMITA); assay type: in vivo; conditions: Bemisia tabaci, read-out: BEMITA 200 ppm (Corrected % Control, rating)
Procedure, shortened: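 Cotton plants (one 3-5 cm true leaf) infested with whitefly eggs (100-300/plant), held 5-6 days at 82° F, 50% RH until crawlers developed. Sprayed to runoff at 200 ppm (acetone stock diluted in 0.025% Tween 20), four plants per treatment. Live nymphs counted after 8-9 days; % control by Abbott's correction versus solvent check.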

| SMILES | pest or weed control at 200 ppm ([1]; green peach aphid) | melting point | pest or weed control at 200 ppm ([2]; sweetpotato whitefly-crawler) | pest or weed control at 200 ppm ([1]; Abbott's correction formula) | pest or weed control at 200 ppm ([2]; Abbott's correction formula) |
| --- | --- | --- | --- | --- | --- |
| CC(=O)N(C)c1cnc(-c2cccnc2)s1 [Compound 22] | < 80% | 162 to 163 °C | < 80% | – | – |
| CN(C(=O)C(C)(C)C)c1cnc(-c2cccnc2)s1 [Compound 23] | 80 to 100% | 102 to 105 °C | < 80% | – | – |
| CC(C)C(=O)N(C)c1cnc(-c2cccnc2)s1 [Compound 24] | 80 to 100% | 113 to 114 °C | 80 to 100% | – | – |
| CN(C(=O)CC(F)(F)F)c1cnc(-c2cccnc2)s1 [Compound 25] | 80 to 100% | 126 to 128 °C | < 80% | – | – |
| CN(C(=O)c1cccnc1)c1cnc(-c2cccnc2)s1 [Compound 26] | < 80% | 173 to 175 °C | < 80% | – | – |
| COC(=O)CCC(=O)N(C)c1cnc(-c2cccnc2)s1 [Compound 27] | 80 to 100% | 127 to 129 °C | < 80% | – | – |
| CSCC(C)C(=O)N(C)c1cnc(-c2cccnc2)s1 (stereo not shown) [Compound 28] | 80 to 100% | 98 to 100 °C | 80 to 100% | – | – |
| CSCC(C)(C)C(=O)N(C)c1cnc(-c2cccnc2)s1 [Compound 29] | 80 to 100% | 92 to 94 °C | 80 to 100% | – | – |
| CSCCC(=O)N(C)c1cnc(-c2cncc(F)c2)s1 [Compound 30, N-[2-(5-fluoro-pyridin-3-yl)-thiazol-5-yl]-N-methyl-3-methylsulfanyl-propionamide] | 80 to 100% | 111 to 114 °C | < 80% | – | – |
| CSCC(C)C(=O)N(C)c1cnc(-c2cncc(F)c2)s1 (stereo not shown) [Compound 31] | 80 to 100% | 75 to 77 °C | 80 to 100% | – | – |
| CC(C)C(=O)N(C)c1cnc(-c2cncc(F)c2)s1 [Compound 32] | 80 to 100% | 156 to 158 °C | 80 to 100% | – | – |
| Cc1nc(-c2ccc(F)nc2)sc1NC(=O)C(C)C [Compound 71] | 80 to 100% | 182 to 186 °C | – | – | – |
| CN(C(=O)OCC[S+](C)[O-])c1cnc(-c2cncc(F)c2)s1 (stereo not shown) [Compound 84] | 80 to 100% | 153 to 155 °C | – | – | – |
| CCN(C(=O)OC(C)(C)C)c1cnc(-c2cccnc2)s1 [Compound 477] | – | 65 to 67 °C | – | – | – |
| CCN(C(=O)Cc1ccsc1)c1sc(-c2cccnc2)nc1Cl [Compound 528] | – | – | – | < 80% | 80 to 100% |
| CCCCC(=O)N(CC)c1sc(-c2cccnc2)nc1Cl [Compound 530] | – | – | – | 80 to 100% | 80 to 100% |
| CCC(C)C(=O)N(CC)c1sc(-c2cccnc2)nc1Cl (stereo not shown) [Compound 531] | – | – | – | 80 to 100% | 80 to 100% |
| CCN(C(C)=O)c1sc(-c2cccnc2)nc1Cl [Compound 533] | – | – | – | 80 to 100% | 80 to 100% |
| C=C(CC)C(=O)N(CC)c1sc(-c2cccnc2)nc1Cl [Compound 534] | – | – | – | < 80% | 80 to 100% |

| SMILES | pest or weed control at 200 ppm ([1]; green peach aphid) | melting point | pest or weed control at 200 ppm ([2]; sweetpotato whitefly-crawler) | pest or weed control at 200 ppm ([1]; Abbott's correction formula) | pest or weed control at 200 ppm ([2]; Abbott's correction formula) |
| --- | --- | --- | --- | --- | --- |
| C=CC(=O)N(CC)c1sc(-c2cccnc2)nc1Cl [Compound 535] | – | – | – | < 80% | 80 to 100% |
| CCN(C(=O)CC(C)(C)[S+](C)[O-])c1sc(-c2cccnc2)nc1Cl (stereo not shown) [Compound 537] | – | – | – | 80 to 100% | < 80% |
| CCN(C(=O)C(C)C(C)SC)c1sc(-c2cccnc2)nc1Cl (stereo not shown) [Compound 538] | – | – | – | 80 to 100% | 80 to 100% |
| CCN(C(=O)C(C)c1ccc(Cl)cc1)c1sc(-c2cccnc2)nc1Cl (stereo not shown) [Compound 540] | – | – | – | 80 to 100% | 80 to 100% |
| CCN(C(=O)c1cnco1)c1sc(-c2cccnc2)nc1Cl [Compound 542] | – | – | – | 80 to 100% | 80 to 100% |
| CCN(C(=O)c1ccc(C(C)=O)s1)c1sc(-c2cccnc2)nc1Cl [Compound 543] | – | – | – | 80 to 100% | 80 to 100% |
| CCN(C(=O)c1ccnc(C)c1)c1sc(-c2cccnc2)nc1Cl [Compound 544] | – | – | – | 80 to 100% | < 80% |
| CCN(C(=O)c1ccc(CSC)o1)c1sc(-c2cccnc2)nc1Cl [Compound 545] | – | – | – | 80 to 100% | < 80% |
| CCN(C(=O)c1ccc(C[S+](C)[O-])o1)c1sc(-c2cccnc2)nc1Cl (stereo not shown) [Compound 549] | – | – | – | 80 to 100% | 80 to 100% |
| CCN(C(=O)Cc1cccs1)c1sc(-c2cccnc2)nc1Cl [Compound 550] | – | – | – | < 80% | 80 to 100% |
| CCN(C(=O)C1C(C=C(Cl)Cl)C1(C)C)c1sc(-c2cccnc2)nc1Cl (stereo not shown) [Compound 552] | – | – | – | 80 to 100% | < 80% |
| CN(C(=O)C1CCCC1)c1sc(-c2cccnc2)nc1Cl [Compound 553] | – | – | – | < 80% | 80 to 100% |
| CCN(C(=O)c1cccs1)c1sc(-c2cccnc2)nc1Cl [Compound 554] | – | – | – | < 80% | < 80% |
| CCN(C(=O)c1scnc1C)c1sc(-c2cccnc2)nc1Cl [Compound 555] | – | – | – | 80 to 100% | < 80% |
| CCN(C(=O)c1snnc1C)c1sc(-c2cccnc2)nc1Cl [Compound 556] | – | – | – | 80 to 100% | < 80% |
| CCN(C(=O)Cc1ccc(C(C)=O)s1)c1sc(-c2cccnc2)nc1Cl [Compound 557] | – | – | – | < 80% | < 80% |
| CCC(C[S+](C)[O-])C(=O)N(CC)c1sc(-c2cccnc2)nc1Cl (stereo not shown) [Compound 559] | – | – | – | 80 to 100% | 80 to 100% |
| CCC(CS(C)(=O)=O)C(=O)N(CC)c1sc(-c2cccnc2)nc1Cl (stereo not shown) [Compound 560] | – | – | – | 80 to 100% | 80 to 100% |
| CCN(C(=O)Cc1ccc(Cl)nc1)c1sc(-c2cccnc2)nc1Cl [Compound 561] | – | – | – | 80 to 100% | < 80% |

| SMILES | pest or weed control at 200 ppm ([1]; green peach aphid) | melting point | pest or weed control at 200 ppm ([2]; sweetpotato whitefly-crawler) | pest or weed control at 200 ppm ([1]; Abbott's correction formula) | pest or weed control at 200 ppm ([2]; Abbott's correction formula) |
| --- | --- | --- | --- | --- | --- |
| CCN(C(=O)Cc1ccncc1)c1sc(-c2cccnc2)nc1Cl [Compound 562] | – | – | – | 80 to 100% | < 80% |
| CCN(C(=O)c1c(F)cccc1F)c1sc(-c2cccnc2)nc1Cl [Compound 563] | – | – | – | 80 to 100% | < 80% |
| CCN(C(=O)C(C)C(C)[S+](C)[O-])c1sc(-c2cccnc2)nc1Cl (stereo not shown) [Compound 565] | – | – | – | 80 to 100% | 80 to 100% |
| CN(C(=O)C1(C)CC1)c1sc(-c2cccnc2)nc1Cl [Compound 566] | – | – | – | 80 to 100% | 80 to 100% |
| Cc1nc(-c2cccnc2)sc1N(CCS(C)(=O)=O)C(=O)OC(C)(C)C [Compound 568] | – | – | – | < 80% | < 80% |
| CC1CC1C(=O)N(C)c1sc(-c2cccnc2)nc1Cl (stereo not shown) [Compound 569] | – | – | – | 80 to 100% | 80 to 100% |
| CCN(C(=O)c1cccnc1)c1sc(-c2cccnc2)nc1Cl [Compound 571] | – | – | – | 80 to 100% | < 80% |
| CCN(C(=O)c1ccoc1)c1sc(-c2cccnc2)nc1Cl [Compound 573] | – | – | – | < 80% | < 80% |
| CCN(C(=O)c1ccccn1)c1sc(-c2cccnc2)nc1Cl [Compound 574] | – | – | – | 80 to 100% | < 80% |
| CCN(C(=O)Cc1ccc(Cl)cc1)c1sc(-c2cccnc2)nc1Cl [Compound 575] | – | – | – | 80 to 100% | < 80% |
| CCN(C(=O)c1ccco1)c1sc(-c2cccnc2)nc1Cl [Compound 576] | – | – | – | 80 to 100% | < 80% |
| CCN(C(=O)c1cnn(C(C)(C)C)c1C)c1sc(-c2cccnc2)nc1Cl [Compound 578] | – | – | – | 80 to 100% | 80 to 100% |
| Cc1nc(-c2cncc(F)c2)sc1N(C)C(=O)C1CCCNC1 (stereo not shown) [Compound 581] | – | – | – | < 80% | < 80% |
| CCCC(C)C(=O)N1CCCC(C(=O)N(C)c2sc(-c3cncc(F)c3)nc2C)C1 (stereo not shown) [Compound 582, 1-(2-methyl-pentanoyl)-piperidine-3-carboxylic acid [2-(5-fluoro-pyridin-3-yl)-4-methyl-thiazol-5-yl]-methyl-amide] | – | – | – | 80 to 100% | 80 to 100% |
| COCC(=O)N1CCCC(C(=O)N(C)c2sc(-c3cncc(F)c3)nc2C)C1 (stereo not shown) [Compound 583] | – | – | – | 80 to 100% | 80 to 100% |
| Cc1nc(-c2cncc(F)c2)sc1N(C)C(=O)C1CCCN(C(=O)CC(F)(F)F)C1 (stereo not shown) [Compound 584] | – | – | – | < 80% | < 80% |
| CCOC(=O)N1CCCC(C(=O)N(C)c2sc(-c3cncc(F)c3)nc2C)C1 (stereo not shown) [Compound 586] | – | – | – | 80 to 100% | 80 to 100% |
| CCCCN1CCCC(C(=O)N(C)c2sc(-c3cncc(F)c3)nc2C)C1 (stereo not shown) [Compound 587] | – | – | – | 80 to 100% | 80 to 100% |
| CSCC(C)C(=O)Nc1sc(-c2cccnc2)nc1Cl (stereo not shown) [Compound 588] | – | – | – | 80 to 100% | 80 to 100% |

Source: patent US8853246B2 (Dow AgroSciences LLC, priority 2009, dated 2014)
